From PubChem BioAssay AID743181 (NMMLSC, 2013)
Activity calls are given as the source filed them.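 Rule for the calls: active = at least 15% GFP+ cells at the top dose together with an EC50 below 10 µM; inactive = the rest.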

Key:
[1] = differentiation promoters in HOXA9-arrested myeloid cells, SAR follow-up, HOXA9-ER marrow cells, GFP flow, set 1 (AID 743181); conditions: HOXA9-ER marrow cells, lysozyme-GFP differentiation, flow; at 10 µM (top of the series)
[2] = test system: HOXA9-ER marrow cells, lysozyme-GFP differentiation, flow; assay: as above

| SMILES | GFP+ cells, differentiation [1] | EC50 [2] |
| --- | --- | --- |
| O=C(CCNC(=O)c1ccc(Cl)cc1)N[C@H]1CCCc2ccccc21 | 1% (inactive) | – |
| O=C(Cc1ccc(Cl)cc1)NCCC(=O)N[C@@H]1CCCc2ccccc21 | 16% (inactive) | – |
| C[C@@H](NC(=O)CCNC(=O)c1ccc(Cl)cc1)c1ccccc1 | 1% (inactive) | – |
| O=C(CCNC(=O)c1ccc(Cl)cc1)N[C@@H]1CCCc2ccccc21 | – | 3.47 µM |
| Cc1ccc(C)c(OCCn2cc(C(=O)O)c3ccccc32)c1 | 0% (inactive) | – |
| O=C(CCNC(=O)c1ccccc1)N[C@@H]1CCCc2ccccc21 | 3% (inactive) | – |
| O=C(NC1CCOc2ccccc21)C1CCCN(C(=O)c2ccc(Cl)cc2)C1 (stereo not given) | 1% (inactive) | – |
| O=C(CNC(=O)c1ccc(Cl)c(Cl)c1)N[C@@H]1CCCc2ccccc21 | 2% (inactive) | – |
| O=C(CCNC(=O)c1ccc(Cl)cc1)N[C@@H]1CCc2ccccc21 | – | 9.97 µM |
| O=C(O)c1ccccc1OCc1ccccc1Br | 1% (inactive) | – |
| CC(NC(=O)C1CCCN(C(=O)c2ccc(Cl)cc2)C1)c1ccccc1 (stereo not given) | 0% (inactive) | – |
| O=C(CCNC(=O)c1ccc(Cl)c(Cl)c1)N[C@@H]1CCCc2ccccc21 | – | 3.24 µM |
| O=C(CCNC(=O)c1ccc(F)cc1)N[C@@H]1CCCc2ccccc21 | 12% (inactive) | – |
| O=C(CCNC(=O)c1ccc2c(c1)OC(F)(F)O2)N[C@@H]1CCCc2ccccc21 | – | 4.69 µM |
| NCCC(=O)N[C@@H]1CCCc2ccccc21 | 1% (inactive) | – |
| CC(NC(=O)CCNC(=O)c1ccc(Cl)cc1)c1ccc(F)cc1 (stereo not given) | 1% (inactive) | – |
| O=C(NC1CCc2ccccc21)C1CCCN(C(=O)c2ccc(Cl)cc2)C1 (stereo not given) | 1% (inactive) | – |
| O=C(CNC(=O)c1ccc(Cl)cc1)N[C@@H]1CCCc2ccccc21 | 4% (inactive) | – |
| COc1ccc(C(=O)NCCC(=O)N[C@@H]2CCCc3ccccc32)cc1 | – | 4.95 µM |
| O=C(CCNC(=O)c1ccc(C(F)(F)F)cc1)N[C@@H]1CCCc2ccccc21 | – | 2.63 µM |

| SMILES | GFP+ cells, differentiation [1] | EC50 [2] |
| --- | --- | --- |
| O=C(O)c1cccnc1Nc1ccc(Cl)cc1 | – | 5.4 µM |
| O=C(CCCNC(=O)c1ccc(Cl)cc1)N[C@@H]1CCCc2ccccc21 | 2% (inactive) | – |
| CC(NC(=O)CCNC(=O)c1ccc(Cl)cc1)c1ccc2c(c1)OCO2 (stereo not given) | 0% (inactive) | – |
| COc1ccccc1C(C)NC(=O)CCNC(=O)c1ccc(Cl)cc1 (stereo not given) | 0% (inactive) | – |
| Cc1ccc(C(=O)NCCC(=O)N[C@@H]2CCCc3ccccc32)cc1 | – | 8.68 µM |
| O=C(CCNC(=O)c1ccc(Cl)cc1)NC1CCCc2ccccc21 (stereo not given) | – | 5.06 µM |
| O=C(CCCNC(=O)c1ccc(Cl)c(Cl)c1)N[C@@H]1CCCc2ccccc21 | 1% (inactive) | – |
| O=C(CCNC(=O)c1ccc(Cl)cc1)NC1CCCCC1 | 1% (inactive) | – |
| CC(c1ccccc1)N(C)C(=O)CCNC(=O)c1ccc(Cl)cc1 (stereo not given) | 0% (inactive) | – |
| CC(C)(C)OC(=O)NCCC(=O)N[C@H]1CCCc2ccccc21 | 1% (inactive) | – |
| CC(C)(C)OC(=O)NCCC(=O)N[C@@H]1CCCc2ccccc21 | 1% (inactive) | – |
| Cc1cccc(C(=O)NCCC(=O)NC2CCCc3ccccc32)c1 (stereo not given) | 1% (inactive) | – |
| O=C(CNC(=O)c1ccc(C(F)(F)F)cc1)N[C@@H]1CCCc2ccccc21 | 1% (inactive) | – |
| O=C(CCCNC(=O)c1ccc(OC(F)(F)F)cc1)N[C@@H]1CCCc2ccccc21 | 1% (inactive) | – |
| CC(=O)NCCC(=O)N[C@@H]1CCCc2ccccc21 | 0% (inactive) | – |
| O=C(CCNC(=O)c1cccc(Cl)c1)N[C@@H]1CCCc2ccccc21 | – | 5.42 µM |
| N#Cc1ccc(C(=O)NCCC(=O)N[C@@H]2CCCc3ccccc32)cc1 | 16% (inactive) | – |
| O=C(CNC(=O)c1ccc(OC(F)(F)F)cc1)N[C@@H]1CCCc2ccccc21 | 1% (inactive) | – |
| O=C(CCCNC(=O)c1ccc(C(F)(F)F)cc1)N[C@@H]1CCCc2ccccc21 | 1% (inactive) | – |
| O=C(CCNC(=O)c1ccc(OC(F)(F)F)cc1)N[C@@H]1CCCc2ccccc21 | – | 1.61 µM |
